Columns and labels:
[1] = system: Puccinia recondita f. sp. tritici; assay: Test I: wheat leaf rust, preventive spray on wheat seedlings, visual disease rating; conditions: for Test I rating (% disease control): wheat leaf rust, 100 = 100% disease control; for pest or weed control at 200 µg/mL: 192 h, read-out: Test I rating (% disease control)
Botrytis cinerea = assay: Test B: tomato Botrytis, preventive spray on tomato seedlings, visual disease rating; conditions: for Test B rating (% disease control): tomato Botrytis, 100 = 100% disease control; for pest or weed control at 200 µg/mL: Botrytis cinerea, in Solanum lycopersicum, 120 h, read-out: Test B rating (% disease control)
Septoria tritici = assay: Test G: wheat leaf blotch, preventive spray on wheat seedlings, visual disease rating; conditions: for Test G rating (% disease control): wheat leaf blotch, 100 = 100% disease control; for pest or weed control at 200 µg/mL: Zymoseptoria tritici, in Triticum aestivum, 504 h, read-out: Test G rating (% disease control)
Alternaria solani = assay: Test C: tomato early blight, preventive spray on tomato seedlings, visual disease rating; conditions: for Test C rating (% disease control): tomato early blight, 100 = 100% disease control; for pest or weed control at 200 µg/mL: Alternaria solani, in Solanum lycopersicum, 168 h, read-out: Test C rating (% disease control)
[2] = system: Erysiphe graminis f sp. tritici; assay: Test J: wheat powdery mildew, preventive spray on wheat seedlings, visual disease rating; conditions: for Test J rating (% disease control): wheat powdery mildew, 100 = 100% disease control; for pest or weed control at 200 µg/mL: Blumeria graminis, in Triticum aestivum, 192 h, read-out: Test J rating (% disease control)
Septoria nodorum = assay: Test F: Septoria glume blotch, preventive spray on wheat seedlings, visual disease rating; conditions: for Test F rating (% disease control): 100 = 100% disease control; for pest or weed control at 200 µg/mL: Parastagonospora nodorum, in Triticum aestivum, 192 h, read-out: Test F rating (% disease control)
[3] = system: Puccinia recondita f. sp. tritici; assay: Test H: wheat leaf rust, curative spray on inoculated wheat seedlings, visual disease rating; conditions: for Test H rating (% disease control): wheat leaf rust, 100 = 100% disease control; for pest or weed control at 200 µg/mL: 144 h, read-out: Test H rating (% disease control)
[4] = preventive, 0 = no control relative to controls
[5] = 0 = no control relative to controls
[6] = Septoria glume blotch, 0 = no control relative to controls
[7] = curative, 0 = no control relative to controls
[8] = preventive spray, 0 = no control
[9] = Septoria glume blotch on wheat, preventive spray, 0 = no control

SMILES | Test I rating (% disease control) [1, 4] [%] | Test B rating (% disease control) (Botrytis cinerea; [5]) [%] | Test G rating (% disease control) (Septoria tritici; [5]) [%] | Test C rating (% disease control) (Alternaria solani; [5]) [%] | Test J rating (% disease control) [2, 5] [%] | Test F rating (% disease control) (Septoria nodorum; [6]) [%] | Test H rating (% disease control) [3, 7] [%] | Test I rating (% disease control) [1, 8] [%] | Test B rating (% disease control) (Botrytis cinerea; [8]) [%] | Test G rating (% disease control) (Septoria tritici; [8]) [%] | Test C rating (% disease control) (Alternaria solani; [8]) [%] | Test J rating (% disease control) [2, 8] [%] | Test F rating (% disease control) (Septoria nodorum; [9]) [%] | Test H rating (% disease control) ([3]; curative spray, 0 = no control) [%] | other results
Cc1nn(C)c(Nc2c(F)cccc2F)c1-c1ccc(F)cc1F [compound 256] | 99 | 99 | 100 | 99 | 100 | 96 | 0 |  |  |  |  |  |  |  | 
Cc1nn(C)c(Oc2c(F)cc(C#N)cc2F)c1-c1ccc(Cl)cc1 [compound 44] |  |  |  |  |  |  |  | 9 | 82 | 96 | 0 | 0 | 0 | 7 | 
COc1cc(F)c(Nc2c(-c3ccc(F)cc3F)c(C)nn2C)c(F)c1 [compound 42] |  |  |  |  |  |  |  | 94 | 100 | 93 | 0 | 82 | 0 | 0 | 
Cc1nn(C)c(Oc2c(F)cc(C#N)cc2F)c1-c1ccc(F)cc1Cl [Compound 45, 4-[[4-(2-chloro-4-fluorophenyl)-1,3-dimethyl-1H-pyrazol-5-yl]oxy]-3,5-difluorobenzonitrile] |  |  |  |  |  |  |  |  |  |  |  |  |  |  | pest or weed control at 200 µg/mL [1]: 100%; pest or weed control at 200 µg/mL (Botrytis cinerea): 100%; pest or weed control at 200 µg/mL (Septoria tritici): 100%; pest or weed control at 200 µg/mL (Alternaria solani): 100%; pest or weed control at 200 µg/mL [2]: 100%; pest or weed control at 200 µg/mL (Septoria nodorum): 100%; pest or weed control at 200 µg/mL [3]: 7%
COc1ccc(-c2c(C)nn(C)c2Nc2cc(F)ccc2F)c(Cl)c1 [compound 176] | 68 | 100 | 96 | 71 | 100 | 0 | 0 |  |  |  |  |  |  |  | 
COc1ccc(-c2c(C)nn(C)c2Nc2ncc(Cl)cc2Cl)c(Cl)c1 [compound 267] | 96 | 100 | 100 | 79 | 93 | 60 | 0 |  |  |  |  |  |  |  | 
Cc1nn(C)c(Nc2c(F)cc(F)cc2F)c1-c1ccccc1Br [compound 248] | 99 | 99 | 100 | 26 | 100 | 73 | 0 |  |  |  |  |  |  |  | 
CC(=O)Nc1ccc(Oc2c(-c3ccc(F)cc3Cl)c(C)nn2C)c(F)c1 [compound 71] |  |  |  |  |  |  |  | 91 | 93 | 96 | 0 | 67 | 0 | 0 | 
Cc1nn(C)c(Nc2ccc(Cl)cc2Cl)c1-c1ccc(F)cc1F [compound 243] | 97 | 100 | 100 | 64 | 100 | 0 | 0 |  |  |  |  |  |  |  | 
Cc1nn(C)c(Nc2cc(F)c(F)cc2F)c1-c1c(F)cc(C#N)cc1F [compound 138] |  |  |  |  |  |  |  | 100 | 99 | 99 | 96 | 98 | 84 | 38 | 
COc1cc(OC)cc(-c2c(C)nn(C)c2Oc2c(F)cc(C#N)cc2F)c1 [compound 85] |  |  |  |  |  |  |  | 19 | 0 | 17 | 0 | 0 | 0 | 0 | 
COc1cc(F)c(-c2c(C)nn(C)c2Nc2ccc(F)cc2C)c(F)c1 [compound 88] |  |  |  |  |  |  |  | 99 | 100 | 98 | 100 | 100 | 99 | 95 | 
Cc1cc(F)ccc1-c1c(C)nn(C)c1Oc1c(F)cc(C#N)cc1F [compound 97] |  |  |  |  |  |  |  | 99 | 100 | 100 | 99 | 99 | 95 | 0 | 
Cc1nn(C)c(Oc2ccc(Br)c(F)c2)c1-c1c(F)cc(F)cc1F [compound 130] |  |  |  |  |  |  |  | 19 | 97 | 99 | 0 | 0 | 0 | 0 | 
CCOc1cc(F)c(-c2c(C)nn(C)c2Nc2ccc(F)cc2F)c(F)c1 [compound 141] |  |  |  |  |  |  |  | 99 | 99 | 100 | 99 | 100 | 98 | 0 | 
COc1ccc(-c2c(C)nn(C)c2Nc2ccc(F)cc2F)c(Cl)c1 [compound 160] | 100 | 98 | 99 | 99 | 100 | 0 | 8 |  |  |  |  |  |  |  | 
Cc1nn(C)c(Nc2c(F)cc(F)cc2Cl)c1-c1c(F)cccc1Cl [compound 298] | 100 | 100 | 100 | 93 | 100 | 87 | 0 |  |  |  |  |  |  |  | 
COc1cc(F)c(-c2c(C)nn(C)c2Nc2ccc(F)cc2Cl)c(F)c1 [Compound 87, N-(2-chloro-4-fluorophenyl)-4-(2,6-difluoro-4-methoxyphenyl)-1,3-dimethyl-1H-pyrazol-5-amine] |  |  |  |  |  |  |  |  |  |  |  |  |  |  | pest or weed control at 200 µg/mL [1]: 99%; pest or weed control at 200 µg/mL (Botrytis cinerea): 100%; pest or weed control at 200 µg/mL (Septoria tritici): 98%; pest or weed control at 200 µg/mL (Alternaria solani): 100%; pest or weed control at 200 µg/mL [2]: 100%; pest or weed control at 200 µg/mL (Septoria nodorum): 95%; pest or weed control at 200 µg/mL [3]: 85%

From patent publication US10448639B2, “Fungicidal pyrazoles” (FMC CORPORATION, priority 2009, dated 2019)
